Data taken from article PMC5310657, “Effects of an unusual poison identify a lifespan role for Topoisomerase 2 in Saccharomyces cerevisiae” (Aging (Albany NY), 2017).

Tests used:
Assay type in all cases: biochemical
[1] = biological target: T1, yeast topoisomerase 2 (yTop2) (Saccharomyces cerevisiae, UniProt P06786); assay: in vitro pUC18 plasmid linearization (DNA cleavage) assay, reference Top2 poison
T1 construct: gene TOP2
T1 sequence (P06786 1-1428): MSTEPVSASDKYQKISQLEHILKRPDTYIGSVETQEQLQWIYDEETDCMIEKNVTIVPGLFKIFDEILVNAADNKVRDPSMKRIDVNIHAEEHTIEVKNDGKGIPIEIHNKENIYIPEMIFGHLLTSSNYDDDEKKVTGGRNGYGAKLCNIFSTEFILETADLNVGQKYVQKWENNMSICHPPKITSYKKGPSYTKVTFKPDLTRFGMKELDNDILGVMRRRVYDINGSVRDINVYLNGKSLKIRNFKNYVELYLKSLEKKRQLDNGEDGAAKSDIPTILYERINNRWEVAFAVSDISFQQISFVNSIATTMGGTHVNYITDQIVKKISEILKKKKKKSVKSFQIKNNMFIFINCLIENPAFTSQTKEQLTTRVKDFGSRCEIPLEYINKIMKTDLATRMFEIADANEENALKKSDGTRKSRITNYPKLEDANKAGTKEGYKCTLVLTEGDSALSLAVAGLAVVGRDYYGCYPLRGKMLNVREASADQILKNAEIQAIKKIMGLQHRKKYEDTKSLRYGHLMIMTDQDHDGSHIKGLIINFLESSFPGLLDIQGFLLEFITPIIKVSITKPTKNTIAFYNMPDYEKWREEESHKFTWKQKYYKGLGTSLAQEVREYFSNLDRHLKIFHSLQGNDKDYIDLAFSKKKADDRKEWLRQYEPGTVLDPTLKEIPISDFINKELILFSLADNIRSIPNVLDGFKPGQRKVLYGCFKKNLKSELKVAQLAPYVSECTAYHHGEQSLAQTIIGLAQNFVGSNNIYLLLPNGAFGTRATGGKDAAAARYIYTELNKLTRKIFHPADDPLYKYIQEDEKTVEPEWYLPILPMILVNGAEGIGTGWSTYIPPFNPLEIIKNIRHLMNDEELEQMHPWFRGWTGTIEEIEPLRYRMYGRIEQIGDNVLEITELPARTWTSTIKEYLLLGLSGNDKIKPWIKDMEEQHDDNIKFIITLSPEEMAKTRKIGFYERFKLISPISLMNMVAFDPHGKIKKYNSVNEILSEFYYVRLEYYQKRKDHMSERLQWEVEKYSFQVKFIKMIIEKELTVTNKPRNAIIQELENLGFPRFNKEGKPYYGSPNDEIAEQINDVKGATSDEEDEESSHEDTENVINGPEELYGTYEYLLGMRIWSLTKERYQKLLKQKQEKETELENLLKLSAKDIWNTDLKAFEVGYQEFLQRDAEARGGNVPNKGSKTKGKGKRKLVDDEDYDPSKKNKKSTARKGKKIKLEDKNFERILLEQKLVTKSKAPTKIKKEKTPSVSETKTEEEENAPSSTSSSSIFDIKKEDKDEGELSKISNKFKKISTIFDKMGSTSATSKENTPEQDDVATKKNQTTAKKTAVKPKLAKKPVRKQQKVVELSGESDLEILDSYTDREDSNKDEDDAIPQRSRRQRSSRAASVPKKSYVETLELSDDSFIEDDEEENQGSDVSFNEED

[2] = biological target: T1, yeast topoisomerase 2 (yTop2); assay: in vitro pUC18 plasmid linearization (DNA cleavage) assay; supported by TOP2 overexpression hypersensitivity and resistant top2 mutants
human Top2α = biological target: T2, human Top2α (Homo sapiens, UniProt P11388); assay: kinetoplast DNA decatenation assay with purified human TOP2-α
T2 construct: gene TOP2A
T2 sequence (P11388 whole entry): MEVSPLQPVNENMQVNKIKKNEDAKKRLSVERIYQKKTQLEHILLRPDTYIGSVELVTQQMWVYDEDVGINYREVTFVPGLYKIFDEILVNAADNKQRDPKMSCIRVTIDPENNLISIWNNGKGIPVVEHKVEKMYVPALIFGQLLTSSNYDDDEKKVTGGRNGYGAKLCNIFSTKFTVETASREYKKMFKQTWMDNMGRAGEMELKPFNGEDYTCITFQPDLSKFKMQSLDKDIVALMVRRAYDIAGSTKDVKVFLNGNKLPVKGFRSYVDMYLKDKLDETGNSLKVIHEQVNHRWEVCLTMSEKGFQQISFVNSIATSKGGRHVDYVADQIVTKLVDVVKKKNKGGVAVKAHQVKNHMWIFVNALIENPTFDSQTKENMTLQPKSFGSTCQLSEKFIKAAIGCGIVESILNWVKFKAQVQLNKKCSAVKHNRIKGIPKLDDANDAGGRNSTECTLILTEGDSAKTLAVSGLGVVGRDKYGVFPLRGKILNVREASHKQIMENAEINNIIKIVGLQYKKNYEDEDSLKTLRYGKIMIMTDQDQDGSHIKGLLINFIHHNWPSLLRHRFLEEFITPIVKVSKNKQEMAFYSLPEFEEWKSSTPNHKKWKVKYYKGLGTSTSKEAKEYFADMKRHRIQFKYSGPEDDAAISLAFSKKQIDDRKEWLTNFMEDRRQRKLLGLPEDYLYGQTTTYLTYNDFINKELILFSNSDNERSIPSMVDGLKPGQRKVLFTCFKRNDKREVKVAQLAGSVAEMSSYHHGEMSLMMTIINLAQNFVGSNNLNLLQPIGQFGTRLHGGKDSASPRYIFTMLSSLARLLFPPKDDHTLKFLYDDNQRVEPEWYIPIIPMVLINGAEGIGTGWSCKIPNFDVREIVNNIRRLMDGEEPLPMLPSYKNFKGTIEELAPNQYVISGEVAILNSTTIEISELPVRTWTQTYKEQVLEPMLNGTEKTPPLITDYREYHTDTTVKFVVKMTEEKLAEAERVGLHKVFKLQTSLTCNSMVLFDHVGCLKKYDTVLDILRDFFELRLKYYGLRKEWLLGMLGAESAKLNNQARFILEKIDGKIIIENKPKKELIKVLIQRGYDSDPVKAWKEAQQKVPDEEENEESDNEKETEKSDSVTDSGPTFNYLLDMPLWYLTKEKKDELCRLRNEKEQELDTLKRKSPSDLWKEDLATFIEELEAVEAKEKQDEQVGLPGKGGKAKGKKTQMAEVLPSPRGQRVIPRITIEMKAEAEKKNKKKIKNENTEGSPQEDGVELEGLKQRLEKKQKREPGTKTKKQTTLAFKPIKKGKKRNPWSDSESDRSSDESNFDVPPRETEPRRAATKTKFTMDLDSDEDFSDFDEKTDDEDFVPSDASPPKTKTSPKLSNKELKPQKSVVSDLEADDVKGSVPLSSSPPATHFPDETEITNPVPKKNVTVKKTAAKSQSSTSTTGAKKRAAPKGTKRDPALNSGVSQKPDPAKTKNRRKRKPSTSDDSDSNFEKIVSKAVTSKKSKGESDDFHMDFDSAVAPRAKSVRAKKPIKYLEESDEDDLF

Row | IC50 (human Top2α) [µM] | SMILES | in vitro pUC18 plasmid linearization (DNA cleavage) assay, reference Top2 poison [1] | in vitro pUC18 plasmid linearization (DNA cleavage) assay; supported by TOP2 ove [2]
1 | – | COc1cc([C@@H]2c3cc4c(cc3[C@@H](O[C@@H]3O[C@@H]5CO[C@@H](C)O[C@H]5[C@H](O)[C@H]3O)[C@H]3COC(=O)[C@H]23)OCO4)cc(OC)c1O [ETOP, etoposide] | formation by yTop2 of DSBs in plasmid DNA (Fig. 7A & B), albeit less efficiently than etoposide | –
2 | 3 | c1ccc2nc3c(nc2c1)[nH]c1ccccc13 [LS1, 6H-Indolo [2,3-b] quinoxaline] | – | LS1 promotes the in vitro formation by yTop2 of DSBs in plasmid DNA (Fig. 7A & B)
